Source: patent publication US10577382B2, “Fused heterocyclic compound” (TAKEDA PHARMACEUTICAL COMPANY LIMITED, priority 2016, dated 2020)

Tests used:
[1] = test system: HCT116 cells; test: Growth inhibitory activity using HCT116 cells (Cell Titer-Glo); format: cell-based, human; details: Homo sapiens, HCT-116, 72 h, compound 1 μM, 3 days, read-out: Cell growth inhibition ratio at compound concentration of 1 μM
Method: HCT 116 cells (ATCC) were seeded in a 384-well plate at a density of 6×10^2 cells/well, and cultured overnight in a cell culture medium McCoy's 5A (Thermo Fisher Scientific) containing 10% FBS (fetal bovine serum) and 1% penicillin/streptomycin. The dissolved test compound was added in the cell medium, and the cell medium was left standing in a CO2 incubator (37° C.) for 3 days. A Cell Titer-Glo solution (Promega Corporation) was added, the mixture was stirred at room temperature for 10 minutes, and the emission value was measured by Envision (PerkinElmer). The inhibition ratio (%) of HCT116 cell growth by the test compound was calculated in accordance with the following expression. Inhibition ratio (%)=(1−(count of test compound−blank)÷(control−blank))×100
The count of the HCT116 cell suspension without addition of the compound was described as a control, and the count without addition of the compound and addition of HCT116 cells was described as a blank. The concentration at which the inhibition ratio was 50% was defined as an IC50 value.

[2] = test system: SK-MEL-28-MYC cells; test: Growth inhibitory action on MYC-induced SK-MEL-28-MYC cells (CellTiter-Glo); format: cell-based, human; details: 125 nM, 3 days
Text: Human MYC cDNA was inserted downstream of the TRE of a lentiviral vector (modified pTRIPZ: GE Healthcare) having a tetracycline responsive sequence (TRE) in the promoter region. The produced virus was infected with human malignant melanoma cells SK-MEL-28 (purchased from ATCC) to establish SK-MEL-28 cells (SK-MEL-28-MYC) inducing expression of MYC in the presence of doxycycline (Takara Bio Inc.) which is a tetracycline derivative. SK-MEL-28 cells (SK-MEL-28-Control) having an empty vector with only modified pTRIPZ were also established. 20 μL/well of 2.5 μg/mL doxycycline-containing medium was added to a 96-well plate, and 80 μl/well (1,000 cells/well) of a cell suspension was added, and cultured at 37° C. for 2 days in a 5% CO2 gas incubator. Thereafter, 100 μl of a 250 nM test compound solution was added (final concentration: 125 nM), and the mixture was further cultured for 3 days. 50 µl/well of a CellTiter-Glo™ Luminescent Cell Viability Assay reagent (Promega Corporation) was added to a 96-well plate, the amount of luminescence was measured by a luminometer, and the amount of remaining ATP was determined as a cell amount. The inhibition ratio (%) of cell growth by the test compound was calculated in accordance with the following expression. Inhibition ratio (%)=(1−(amount of luminescence of test compound)÷(amount of luminescence of control group))×100

Structure (SMILES): COc1ncnn2ccc(-c3cnc4nc(C)n(Cc5nnc([C@@H](C)F)o5)c4c3)c12 [Example 286, 1-((5-((1R)-1-fluoroethyl)-1,3,4-oxadiazol-2-yl)methyl)-6-(4-methoxypyrrolo[2,1-f][1,2,4]triazin-5-yl)-2-methyl-1H-imidazo[4,5-b]pyridine]
- inhibition at 1 µM [1]: 95%
- Inhibition ratio (%) of cell growth, Doxycycline (+) ([2]; Doxycycline (+), MYC induced): 69.3%
- Inhibition ratio (%) of cell growth, Doxycycline (−) ([2]; Doxycycline (−)): 24.7%
